Laboratory results as given in ChEMBL document CHEMBL1201862, “PubChem BioAssay data set” (2004).
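Interpolation was linear, between the two tested concentrations surrounding the appropriate level; five concentrations were tested over 48 hours in 96-well plates. GI50: concentration for 50% inhibition of growth.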 Calls of active or inactive are those of the source. Cut-off read from the data, not from the text of the source: active = GI50 up to about 1.1 µM and inactive = higher.

Tests used:
Experiment in all cases: NCI tumour cell line growth inhibition, 48 h
NCI-H23 = test system: NCI-H23
SF-295 = test system: SF-295
CCRF-CEM = test system: CCRF-CEM
TK-10 = test system: TK-10
HOP-62 = test system: HOP-62
SN12C = test system: SN12C
UO-31 = test system: UO-31
EKVX = test system: EKVX
IGROV-1 = test system: IGROV-1
RXF 393 = test system: RXF 393
MDA-N = test system: MDA-N
RPMI-8226 = test system: RPMI-8226
OVCAR-8 = test system: OVCAR-8
SK-MEL-5 = test system: SK-MEL-5
OVCAR-5 = test system: OVCAR-5
K562 = test system: K562
ACHN = test system: ACHN
SF-268 = test system: SF-268
786-0 = test system: 786-0
UACC-257 = test system: UACC-257

Row | SMILES | GI50 (NCI-H23) | GI50 (SF-295) | GI50 (CCRF-CEM) | GI50 (TK-10) | GI50 (HOP-62) | GI50 (SN12C) | GI50 (UO-31) | GI50 (EKVX) | GI50 (IGROV-1) | GI50 (RXF 393) | GI50 (MDA-N) | GI50 (RPMI-8226) | GI50 (OVCAR-8) | GI50 (SK-MEL-5) | GI50 (OVCAR-5) | GI50 (K562) | GI50 (ACHN) | GI50 (SF-268) | GI50 (786-0) | GI50 (UACC-257)
1 | COc1cc2c(c(OC)c1OC)-c1ccc(OC)c(=O)cc1C(NC(=O)CCCCCNc1ccc(N=[N+]=[N-])cc1[N+](=O)[O-])CC2 (configuration not stated) | < 0.01 µM (active) | < 0.0118 µM (active) | < 0.01 µM (active) | 0.0426 µM (active) | < 0.01 µM (active) | < 0.01 µM (active) | 1.47 µM (inactive) | < 0.0136 µM (active) | < 0.01 µM (active) | < 0.01 µM (active) | < 0.01 µM (active) | < 0.01 µM (active) | < 0.01 µM (active) | < 0.01 µM (active) | < 0.01 µM (active) | < 0.01 µM (active) | 0.0271 µM (active) | < 0.01 µM (active) | < 0.01 µM (active) | –
2 | O=C1/C(=C/Cc2ccco2)N=C(c2ccccc2)N1c1nc2ccc(Sc3ccccc3)cc2[nH]1 | – | 29.7 µM (inactive) | 19.3 µM (inactive) | 35.4 µM (inactive) | 30.1 µM (inactive) | 16.1 µM (inactive) | 19.2 µM (inactive) | 25.6 µM (inactive) | 30.3 µM (inactive) | 15.1 µM (inactive) | 6.12 µM (inactive) | 24.2 µM (inactive) | 20.9 µM (inactive) | 15.9 µM (inactive) | 25.9 µM (inactive) | 28.1 µM (inactive) | 19.4 µM (inactive) | 18.9 µM (inactive) | 18 µM (inactive) | 17.7 µM (inactive)
3 | CSc1ncnc2c1CCN2 | 4.51 µM (inactive) | 6.81 µM (inactive) | > 10 µM (inactive) | > 10 µM (inactive) | > 100 µM (inactive) | > 100 µM (inactive) | 50.6 µM (inactive) | > 10 µM (inactive) | > 10 µM (inactive) | > 10 µM (inactive) | 3.4 µM (inactive) | > 10 µM (inactive) | > 10 µM (inactive) | 2.92 µM (inactive) | > 10 µM (inactive) | 4.93 µM (inactive) | > 10 µM (inactive) | > 10 µM (inactive) | > 10 µM (inactive) | 3.83 µM (inactive)
4 | C=C1C[C@@H]2O[C@H]3[C@H]4[C@@H](C[C@@H](C)[C@@H](OC(C)=O)[C@H]42)[C@@H](C)CO[C@@]3(C)[C@H](OC(=O)CCCCCCC)C[C@H]1O | 19.8 µM (inactive) | 21.7 µM (inactive) | 14.3 µM (inactive) | 17.2 µM (inactive) | 17.4 µM (inactive) | 17.3 µM (inactive) | 15.8 µM (inactive) | 13.9 µM (inactive) | 17.5 µM (inactive) | 18.9 µM (inactive) | 16.7 µM (inactive) | 16.1 µM (inactive) | 16.2 µM (inactive) | 15.5 µM (inactive) | 17.5 µM (inactive) | 22.9 µM (inactive) | 20.7 µM (inactive) | 16.1 µM (inactive) | 15.5 µM (inactive) | 16.7 µM (inactive)
5 | [N-]=[N+]=Nc1cc(=O)[nH]c2ccccc12 | > 100 µM (inactive) | > 100 µM (inactive) | > 100 µM (inactive) | 53 µM (inactive) | > 100 µM (inactive) | > 100 µM (inactive) | 31.4 µM (inactive) | 4.98 µM (inactive) | 31.9 µM (inactive) | > 100 µM (inactive) | > 100 µM (inactive) | 81.8 µM (inactive) | > 100 µM (inactive) | > 100 µM (inactive) | > 100 µM (inactive) | > 100 µM (inactive) | > 100 µM (inactive) | > 100 µM (inactive) | > 100 µM (inactive) | > 100 µM (inactive)
6 | CN(C)Cc1cc(/C=C/C(=O)c2ccc(Br)cc2)cc(CN(C)C)c1O | – | 21.8 µM (inactive) | 4.06 µM (inactive) | 12.8 µM (inactive) | 30.1 µM (inactive) | 15.6 µM (inactive) | 10.7 µM (inactive) | 20.2 µM (inactive) | 8.95 µM (inactive) | 19.2 µM (inactive) | 17.1 µM (inactive) | 3.54 µM (inactive) | 29.2 µM (inactive) | 19.6 µM (inactive) | 35.2 µM (inactive) | 25.1 µM (inactive) | 11.5 µM (inactive) | 14.8 µM (inactive) | 16 µM (inactive) | 17.2 µM (inactive)
7 | CCN(CC)C(=S)SS(=O)(=O)c1ccccc1C(=O)O | > 100 µM (inactive) | > 88.5 µM (inactive) | 82 µM (inactive) | > 100 µM (inactive) | > 100 µM (inactive) | > 94.8 µM (inactive) | > 94 µM (inactive) | > 100 µM (inactive) | > 100 µM (inactive) | > 70.3 µM (inactive) | > 100 µM (inactive) | > 100 µM (inactive) | > 100 µM (inactive) | > 60.7 µM (inactive) | > 100 µM (inactive) | > 100 µM (inactive) | > 70.8 µM (inactive) | 98.2 µM (inactive) | > 100 µM (inactive) | > 100 µM (inactive)
